Laboratory results as given in publication PMC6008489 (Bioorganic & Medicinal Chemistry, 2018).
Where two headings read alike, the source gives them in different places.

Assays:
Aurora B = Aurora B (Homo sapiens, UniProt Q96GD4); format: biochemical; conditions: for Ki: calculated from mean IC50 using the Cheng-Prusoff equation, read-out: AurB Ki; for AurB ligand efficiency (LE): from Ki;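 for all read-outs here: aurora B inhibition measured in a mobility shift assay, underlying mean IC50 taken from two independent duplicate runs at 8 compound concentrations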
Method: IC50 values were obtained for an expanded version of the fragment library using the previously described mobility shift assay.[44] Subsequently, Ki values were estimated from IC50 values to allow better comparison of the activity against targets which were measured at different substrate concentrations (Supplementary data Table 1).
IC50 values for MPS1, Aurora A and Aurora B inhibition were determined as previously described,[44] and Ki values were estimated from the mean IC50 values using the Cheng-Prusoff equation.[48]
Kinase [ATP] (M) [Enzyme] (nM) [Peptide Substrate] (M) MgCl2 (mM)
For all compounds, IC50 values for MPS1, Aurora A, and Aurora B were determined
using MPS1 and Aurora A/B mobility shift assays as described previously.1 IC50
values were calculated from a four-parameter logistic fit of percentage inhibition
versus concentration (at 8 compound concentrations) using GraphPad Prism 5
(GraphPad Software, Inc., CA, USA). Mean IC50 values were determined from two
independent measurements each carried out in duplicate. Ki values were estimated
from the mean IC50 values using the Cheng-Prusoff equation.

MSK1 = molecular target: T1, MSK1 (Homo sapiens, UniProt O75582); experiment: 26-kinase panel mobility shift assay, single concentration; format: biochemical; conditions: read-out: % Inhibition MSK1
T1 construct: purchased Perkin Elmer (ProfilerPro assay kit 1)
Method: (§1) In order to test the biochemical activity of our fragment library, a panel of 26 structurally diverse protein kinases was used.
Mobility Shift Assay Protocol
(§2) Screening of 26 kinases using a mobility shift assay
(§3) A mobility shift assay to determine kinase inhibition was carried out using a
(§4) modified version of the ProfilerPro assay kit 1 (Perkin Elmer, Coventry, UK)
(§5) including MPS1 and Aurora B. Each kit contained an enzyme plate, a substrate
(§6) plate, reconstitution buffer, 1 M DTT, protease inhibitor cocktail and termination
(§7) buffer. Test compounds were added as a solution in DMSO.
final concentration. […] The
(§8) peptide phosphorylation assay was carried out as per the manufacturer’s
(§9) instructions. The electrophoretic separation and analysis of the phosphorylated
(§10) and non-phosphorylated peptides was carried out on a 4-sipper chip using a
(§11) LabChip EZReader II (Perkin Elmer). Results were expressed as % inhibition of
(§12) peptide phosphorylation relative to control wells for 0 % (no test compound) and
(§13) 100 % (no ATP) inhibition. The percentage inhibition was calculated using the
(§14) % Inhibition = [1 - (% Conversion Sample / % Conversion 0% Inhibition Control)] x 100

p38 = molecular target: T2, p38 (Homo sapiens, UniProt Q16539); experiment: as above; format: biochemical; conditions: read-out: % Inhibition p38
T2 construct: purchased Perkin Elmer (ProfilerPro assay kit 1)
Method: as §1
Mobility Shift Assay Protocol
as §2, §3, §4, §5, §6, §7
final concentration. […] The
as §8, §9, §10, §11, §12, §13, §14

CK1d = molecular target: T3, CK1d (Homo sapiens, UniProt P48730); experiment: as above; format: biochemical; conditions: read-out: % Inhibition CK1d
T3 construct: purchased Perkin Elmer (ProfilerPro assay kit 1)
Method: as §3, §4, §5, §6, §7, §8, §9, §10, §11, §12, §13, §14

AurB = AurB (Homo sapiens, UniProt Q96GD4); experiment: as above; format: biochemical; conditions: read-out: % Inhibition AurB
Method: Mobility Shift Assay Protocol
as §2, §3, §4, §5, §6, §7, §8, §9, §10, §11, §12, §13, §14

MPS1 = molecular target: T4, MPS1 (Homo sapiens, UniProt P33981); experiment: biochemical; conditions: read-out: % Inhibition MPS1
T4 sequence (P33981 1-857): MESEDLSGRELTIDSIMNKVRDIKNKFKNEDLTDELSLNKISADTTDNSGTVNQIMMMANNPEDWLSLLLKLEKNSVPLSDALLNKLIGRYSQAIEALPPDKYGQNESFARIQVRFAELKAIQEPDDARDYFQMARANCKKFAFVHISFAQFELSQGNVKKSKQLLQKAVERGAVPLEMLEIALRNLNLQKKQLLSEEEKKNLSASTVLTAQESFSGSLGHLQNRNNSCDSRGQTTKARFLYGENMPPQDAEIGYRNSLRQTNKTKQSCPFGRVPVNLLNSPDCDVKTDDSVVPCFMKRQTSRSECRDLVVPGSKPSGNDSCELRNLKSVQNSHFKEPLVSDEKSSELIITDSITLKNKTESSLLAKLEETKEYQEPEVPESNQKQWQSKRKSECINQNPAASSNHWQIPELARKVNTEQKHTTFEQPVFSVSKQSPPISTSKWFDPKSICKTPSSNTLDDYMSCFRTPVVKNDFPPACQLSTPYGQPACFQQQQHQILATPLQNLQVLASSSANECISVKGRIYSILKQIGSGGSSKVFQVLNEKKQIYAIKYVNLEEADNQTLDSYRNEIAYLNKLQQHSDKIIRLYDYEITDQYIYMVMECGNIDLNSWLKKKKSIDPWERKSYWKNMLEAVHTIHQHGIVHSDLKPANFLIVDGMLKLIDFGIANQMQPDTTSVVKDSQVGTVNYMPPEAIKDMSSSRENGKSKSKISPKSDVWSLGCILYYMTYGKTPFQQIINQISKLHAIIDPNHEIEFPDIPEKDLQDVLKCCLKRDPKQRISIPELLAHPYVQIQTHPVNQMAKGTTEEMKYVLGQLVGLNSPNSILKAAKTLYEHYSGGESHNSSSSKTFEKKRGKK
Method: as §1, §2, §3, §4, §5, §6, §7, §8, §9, §10, §11, §12, §13, §14

INSR = molecular target: T5, INSR (Homo sapiens, UniProt P06213); experiment: 26-kinase panel mobility shift assay, single concentration; format: biochemical; conditions: read-out: % Inhibition INSR
T5 construct: purchased Perkin Elmer (ProfilerPro assay kit 1)
Method: as §1, §2, §3, §4, §5, §6, §7, §8, §9, §10, §11, §12, §13, §14

ABL = molecular target: T6, ABL (Homo sapiens, UniProt P00519); experiment: as above; format: biochemical; conditions: read-out: % Inhibition ABL
T6 construct: purchased Perkin Elmer ProfilerPro assay kit 1
Method: Mobility Shift Assay Protocol
as §2, §3, §4, §5, §6, §7, §8, §9, §10, §11, §12, §13, §14

PRAK = molecular target: T7, PRAK (Homo sapiens, UniProt Q8IW41); experiment: as above; format: biochemical; conditions: read-out: % Inhibition PRAK
T7 construct: purchased Perkin Elmer (ProfilerPro assay kit 1)
T7 sequence (Q8IW41 1-473): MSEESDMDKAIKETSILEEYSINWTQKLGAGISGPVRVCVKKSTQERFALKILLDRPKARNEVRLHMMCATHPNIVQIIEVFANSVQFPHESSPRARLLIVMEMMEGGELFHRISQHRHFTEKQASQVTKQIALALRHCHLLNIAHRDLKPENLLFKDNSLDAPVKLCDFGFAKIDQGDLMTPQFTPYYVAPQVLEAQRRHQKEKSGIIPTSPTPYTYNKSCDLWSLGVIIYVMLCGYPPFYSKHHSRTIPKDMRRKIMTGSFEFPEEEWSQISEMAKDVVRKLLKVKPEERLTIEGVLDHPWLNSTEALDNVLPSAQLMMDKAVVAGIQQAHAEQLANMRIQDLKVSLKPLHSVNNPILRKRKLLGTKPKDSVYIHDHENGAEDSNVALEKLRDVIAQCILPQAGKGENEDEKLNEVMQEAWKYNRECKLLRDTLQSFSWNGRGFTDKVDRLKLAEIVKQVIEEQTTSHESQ
Method: as §3, §4, §5, §6, §7
final concentration. […] The
as §8, §9, §10, §11, §12, §13, §14

LCK = molecular target: T8, LCK (Homo sapiens, UniProt P06239); experiment: as above; format: biochemical; conditions: read-out: % Inhibition LCK
T8 construct: purchased Perkin Elmer (ProfilerPro assay kit 1)
Method: as §3, §4, §5, §6, §7, §8, §9, §10, §11, §12, §13, §14

SRC = molecular target: T9, SRC (Homo sapiens, UniProt P12931); experiment: as above; format: biochemical; conditions: read-out: % Inhibition SRC
T9 construct: purchased Perkin Elmer (ProfilerPro assay kit 1)
Method: as §1, §2, §3, §4, §5, §6, §7, §8, §9, §10, §11, §12, §13, §14

Erk2 = molecular target: T10, Erk2 (Homo sapiens, UniProt P28482); experiment: as above; format: biochemical; conditions: read-out: % Inhibition Erk2
T10 construct: purchased Perkin Elmer (ProfilerPro assay kit 1)
Method: as §3, §4, §5, §6, §7, §8, §9, §10, §11, §12, §13, §14

AurA = molecular target: T11, AurA (Homo sapiens, UniProt O14965); experiment: as above; format: biochemical; conditions: read-out: % Inhibition AurA
T11 construct: purchased Perkin Elmer (ProfilerPro assay kit 1)
T11 sequence (O14965 1-403): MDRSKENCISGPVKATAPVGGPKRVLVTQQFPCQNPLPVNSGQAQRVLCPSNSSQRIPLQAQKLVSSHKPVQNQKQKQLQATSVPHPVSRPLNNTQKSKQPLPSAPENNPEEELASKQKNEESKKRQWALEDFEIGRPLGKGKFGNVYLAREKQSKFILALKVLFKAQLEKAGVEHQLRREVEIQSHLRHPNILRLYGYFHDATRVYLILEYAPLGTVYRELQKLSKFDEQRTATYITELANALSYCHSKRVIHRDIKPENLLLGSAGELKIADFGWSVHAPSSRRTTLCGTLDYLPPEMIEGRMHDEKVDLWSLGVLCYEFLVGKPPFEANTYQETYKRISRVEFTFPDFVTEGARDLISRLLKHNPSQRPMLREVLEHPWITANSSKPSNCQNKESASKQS
Method: Mobility Shift Assay Protocol
as §2, §3, §4, §5, §6, §7, §8, §9, §10, §11, §12, §13, §14

MAPKAPK2 = molecular target: T12, MAPKAPK2 (Homo sapiens, UniProt P49137); experiment: as above; format: biochemical; conditions: read-out: % Inhibition MAPKAPK2
T12 construct: purchased Perkin Elmer (ProfilerPro assay kit 1)
Method: as §3, §4, §5, §6, §7, §8, §9, §10, §11, §12, §13, §14

Erk1 = molecular target: T13, Erk1 (Homo sapiens, UniProt P27361); experiment: as above; format: biochemical; conditions: read-out: % Inhibition Erk1
T13 construct: purchased Perkin Elmer (ProfilerPro assay kit 1)
Method: as §3, §4, §5, §6, §7, §8, §9, §10, §11, §12, §13, §14

FYN = molecular target: T14, FYN (Homo sapiens, UniProt P06241); experiment: as above; format: biochemical; conditions: read-out: % Inhibition FYN
T14 construct: purchased Perkin Elmer (ProfilerPro assay kit 1)
Method: as §3, §4, §5, §6, §7, §8, §9, §10, §11, §12, §13, §14

AKT1 = molecular target: T15, AKT1 (Homo sapiens, UniProt P31749); experiment: as above; format: biochemical; conditions: read-out: % Inhibition AKT1
T15 construct: purchased Perkin Elmer ProfilerPro assay kit 1
T15 sequence (P31749 whole entry): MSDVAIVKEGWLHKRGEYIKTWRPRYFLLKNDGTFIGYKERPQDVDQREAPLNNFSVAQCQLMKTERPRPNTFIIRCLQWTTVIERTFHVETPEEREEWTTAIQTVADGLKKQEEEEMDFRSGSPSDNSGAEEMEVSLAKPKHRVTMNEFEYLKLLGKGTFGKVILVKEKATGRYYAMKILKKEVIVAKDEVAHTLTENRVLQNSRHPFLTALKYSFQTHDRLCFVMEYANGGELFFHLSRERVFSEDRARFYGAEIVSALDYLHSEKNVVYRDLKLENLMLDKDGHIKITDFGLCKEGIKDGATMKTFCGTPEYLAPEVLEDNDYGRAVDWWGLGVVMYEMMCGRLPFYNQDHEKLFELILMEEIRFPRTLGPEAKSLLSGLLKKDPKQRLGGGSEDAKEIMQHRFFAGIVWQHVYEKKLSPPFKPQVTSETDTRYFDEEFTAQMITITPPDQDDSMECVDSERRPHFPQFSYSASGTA
Method: Mobility Shift Assay Protocol
as §2, §3, §4, §5, §6, §7, §8, §9, §10, §11, §12, §13, §14

T14 sequence (P06241 whole entry): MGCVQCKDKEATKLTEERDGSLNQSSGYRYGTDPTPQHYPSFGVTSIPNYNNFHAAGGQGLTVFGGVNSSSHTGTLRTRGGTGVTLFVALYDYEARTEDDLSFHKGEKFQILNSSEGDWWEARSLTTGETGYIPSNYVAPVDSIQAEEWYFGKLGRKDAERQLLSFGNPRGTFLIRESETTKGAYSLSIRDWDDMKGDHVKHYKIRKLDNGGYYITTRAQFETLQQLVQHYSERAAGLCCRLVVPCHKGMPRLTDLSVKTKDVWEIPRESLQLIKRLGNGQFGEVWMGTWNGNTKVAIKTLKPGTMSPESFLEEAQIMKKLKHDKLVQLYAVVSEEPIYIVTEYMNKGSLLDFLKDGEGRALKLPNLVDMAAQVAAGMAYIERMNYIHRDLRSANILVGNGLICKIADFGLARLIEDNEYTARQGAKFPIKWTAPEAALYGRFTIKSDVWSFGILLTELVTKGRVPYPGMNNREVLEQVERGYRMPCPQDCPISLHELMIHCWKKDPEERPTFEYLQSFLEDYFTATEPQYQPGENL
T9 sequence (P12931 whole entry): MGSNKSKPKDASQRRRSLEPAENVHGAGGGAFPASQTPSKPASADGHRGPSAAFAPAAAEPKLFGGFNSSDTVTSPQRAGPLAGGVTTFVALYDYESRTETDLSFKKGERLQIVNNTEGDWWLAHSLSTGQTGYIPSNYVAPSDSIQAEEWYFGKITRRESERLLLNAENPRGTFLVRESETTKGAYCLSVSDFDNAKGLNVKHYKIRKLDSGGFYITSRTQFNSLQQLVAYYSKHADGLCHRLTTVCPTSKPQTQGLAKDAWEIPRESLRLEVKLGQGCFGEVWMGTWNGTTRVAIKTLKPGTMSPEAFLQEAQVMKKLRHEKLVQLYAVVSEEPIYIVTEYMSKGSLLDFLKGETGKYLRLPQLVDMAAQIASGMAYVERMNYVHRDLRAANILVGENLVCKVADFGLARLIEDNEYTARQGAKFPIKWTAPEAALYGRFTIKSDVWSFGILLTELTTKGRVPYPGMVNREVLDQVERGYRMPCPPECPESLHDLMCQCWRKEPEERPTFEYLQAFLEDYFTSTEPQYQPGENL
T8 sequence (P06239 whole entry): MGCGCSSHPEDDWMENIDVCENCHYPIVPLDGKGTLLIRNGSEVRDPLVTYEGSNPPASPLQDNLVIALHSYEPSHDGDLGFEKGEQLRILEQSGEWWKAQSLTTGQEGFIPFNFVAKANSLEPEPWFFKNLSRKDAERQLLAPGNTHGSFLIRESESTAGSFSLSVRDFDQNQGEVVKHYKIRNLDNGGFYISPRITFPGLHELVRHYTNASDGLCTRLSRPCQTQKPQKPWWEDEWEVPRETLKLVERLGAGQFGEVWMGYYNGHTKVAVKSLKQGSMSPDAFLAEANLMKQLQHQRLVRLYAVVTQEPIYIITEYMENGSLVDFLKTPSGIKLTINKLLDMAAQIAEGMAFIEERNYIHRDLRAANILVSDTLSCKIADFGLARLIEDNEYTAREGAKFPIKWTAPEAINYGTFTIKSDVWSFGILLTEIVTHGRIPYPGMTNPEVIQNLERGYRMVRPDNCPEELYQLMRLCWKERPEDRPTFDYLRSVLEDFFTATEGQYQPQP
T3 sequence (P48730 whole entry): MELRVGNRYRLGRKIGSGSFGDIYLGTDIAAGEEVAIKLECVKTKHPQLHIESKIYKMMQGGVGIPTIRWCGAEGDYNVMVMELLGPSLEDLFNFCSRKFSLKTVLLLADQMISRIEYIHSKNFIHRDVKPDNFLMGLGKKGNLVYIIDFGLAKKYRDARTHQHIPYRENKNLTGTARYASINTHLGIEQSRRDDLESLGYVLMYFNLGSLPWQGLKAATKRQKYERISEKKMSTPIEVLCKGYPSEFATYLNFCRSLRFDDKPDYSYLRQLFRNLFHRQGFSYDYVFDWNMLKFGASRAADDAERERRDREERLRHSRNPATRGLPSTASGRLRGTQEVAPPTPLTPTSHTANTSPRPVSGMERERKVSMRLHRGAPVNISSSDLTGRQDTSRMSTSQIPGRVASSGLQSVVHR
T10 sequence (P28482 whole entry): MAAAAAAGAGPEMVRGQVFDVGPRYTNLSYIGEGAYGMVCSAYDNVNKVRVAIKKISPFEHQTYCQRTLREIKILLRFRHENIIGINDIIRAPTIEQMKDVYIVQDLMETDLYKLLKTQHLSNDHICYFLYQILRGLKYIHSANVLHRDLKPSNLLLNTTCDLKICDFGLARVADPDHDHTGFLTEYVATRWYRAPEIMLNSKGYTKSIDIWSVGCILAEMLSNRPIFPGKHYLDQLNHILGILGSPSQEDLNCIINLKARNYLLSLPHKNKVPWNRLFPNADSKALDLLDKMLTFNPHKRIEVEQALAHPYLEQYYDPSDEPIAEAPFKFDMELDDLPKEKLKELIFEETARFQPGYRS
T5 sequence (P06213 28-1382): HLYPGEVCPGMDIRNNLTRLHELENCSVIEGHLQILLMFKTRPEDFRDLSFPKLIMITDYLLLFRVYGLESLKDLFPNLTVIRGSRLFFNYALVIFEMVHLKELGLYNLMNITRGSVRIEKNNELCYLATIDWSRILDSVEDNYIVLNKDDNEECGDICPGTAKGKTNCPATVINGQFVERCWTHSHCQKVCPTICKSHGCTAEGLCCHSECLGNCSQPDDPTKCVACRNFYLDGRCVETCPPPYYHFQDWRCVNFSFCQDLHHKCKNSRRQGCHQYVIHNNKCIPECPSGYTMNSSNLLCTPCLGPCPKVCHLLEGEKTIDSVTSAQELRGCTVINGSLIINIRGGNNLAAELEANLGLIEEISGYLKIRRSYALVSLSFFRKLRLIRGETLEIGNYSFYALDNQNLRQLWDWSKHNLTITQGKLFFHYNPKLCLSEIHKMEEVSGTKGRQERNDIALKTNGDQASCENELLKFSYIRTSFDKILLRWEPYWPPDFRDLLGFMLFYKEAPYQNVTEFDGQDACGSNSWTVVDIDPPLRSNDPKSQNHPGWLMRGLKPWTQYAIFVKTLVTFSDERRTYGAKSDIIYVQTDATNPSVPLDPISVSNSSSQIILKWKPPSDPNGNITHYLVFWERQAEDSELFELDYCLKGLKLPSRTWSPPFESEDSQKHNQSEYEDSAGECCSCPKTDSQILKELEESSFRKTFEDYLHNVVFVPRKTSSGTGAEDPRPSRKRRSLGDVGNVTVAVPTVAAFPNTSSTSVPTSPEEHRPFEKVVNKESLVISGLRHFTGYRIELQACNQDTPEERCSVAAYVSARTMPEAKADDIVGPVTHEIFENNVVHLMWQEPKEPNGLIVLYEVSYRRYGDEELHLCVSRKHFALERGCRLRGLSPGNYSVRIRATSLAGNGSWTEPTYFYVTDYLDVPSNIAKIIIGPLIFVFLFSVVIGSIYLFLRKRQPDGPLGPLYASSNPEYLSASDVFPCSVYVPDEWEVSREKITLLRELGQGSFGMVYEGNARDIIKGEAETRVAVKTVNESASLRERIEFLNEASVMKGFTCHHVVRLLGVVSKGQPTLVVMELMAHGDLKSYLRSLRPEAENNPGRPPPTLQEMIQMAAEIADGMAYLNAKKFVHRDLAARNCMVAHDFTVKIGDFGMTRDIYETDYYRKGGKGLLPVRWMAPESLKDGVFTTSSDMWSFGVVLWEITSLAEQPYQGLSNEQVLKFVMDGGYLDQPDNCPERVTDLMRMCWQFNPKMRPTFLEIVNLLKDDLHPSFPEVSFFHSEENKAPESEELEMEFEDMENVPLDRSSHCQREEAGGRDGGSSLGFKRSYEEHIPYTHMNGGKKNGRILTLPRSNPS
T12 sequence (P49137 whole entry): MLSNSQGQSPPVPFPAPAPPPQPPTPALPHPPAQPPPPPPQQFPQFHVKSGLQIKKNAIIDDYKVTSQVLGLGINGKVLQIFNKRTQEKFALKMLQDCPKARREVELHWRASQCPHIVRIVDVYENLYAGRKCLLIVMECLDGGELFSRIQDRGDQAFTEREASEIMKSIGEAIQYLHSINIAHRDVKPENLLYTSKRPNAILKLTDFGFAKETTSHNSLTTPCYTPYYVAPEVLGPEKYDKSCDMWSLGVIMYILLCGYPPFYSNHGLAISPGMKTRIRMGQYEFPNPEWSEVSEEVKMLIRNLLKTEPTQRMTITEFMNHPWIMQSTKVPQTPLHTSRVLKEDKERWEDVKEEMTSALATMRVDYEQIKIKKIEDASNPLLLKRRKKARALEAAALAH
T2 sequence (Q16539 whole entry): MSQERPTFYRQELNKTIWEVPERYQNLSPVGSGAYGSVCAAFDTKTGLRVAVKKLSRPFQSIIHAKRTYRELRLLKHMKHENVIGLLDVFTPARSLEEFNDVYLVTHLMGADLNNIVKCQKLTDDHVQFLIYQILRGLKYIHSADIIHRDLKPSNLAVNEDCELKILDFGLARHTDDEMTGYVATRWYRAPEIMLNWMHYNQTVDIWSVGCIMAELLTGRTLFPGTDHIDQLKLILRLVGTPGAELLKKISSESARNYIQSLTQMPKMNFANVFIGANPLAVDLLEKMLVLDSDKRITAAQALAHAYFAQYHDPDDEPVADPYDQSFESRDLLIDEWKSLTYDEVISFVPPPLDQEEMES

Compound	Ki (Aurora B)	AurB ligand efficiency (LE) (Aurora B)	inhibition at 100 µM (MSK1)	inhibition at 100 µM (p38)	inhibition at 100 µM (CK1d)	inhibition at 100 µM (AurB)	inhibition at 100 µM (INSR)	inhibition at 100 µM (ABL)	inhibition at 100 µM (PRAK)	inhibition at 100 µM (LCK)	inhibition at 100 µM (SRC)	inhibition at 100 µM (Erk2)	inhibition at 100 µM (AurA)	inhibition at 100 µM (MAPKAPK2)	inhibition at 100 µM (Erk1)	inhibition at 100 µM (FYN)	inhibition at 100 µM (AKT1)	inhibition at 100 µM (MPS1; compound at 100 µM)	also measured
Nc1ccc[nH]c1=O [Compound 1, 3-aminopyridin-2-one]	160 µM	0.64	26%	9%	45%	20%	2%	5%	19%	4%	31%	3%	58%	25%	9%	11%	42%	–	inhibition at 100 µM (MPS1): 0%
Cn1cc(-c2c[nH]c(=O)c(N)c2)cn1 [Compound 2, 3-Amino-5-(1-methyl-1H-pyrazol-4-yl)pyridin-2(1H)-one]	3.2 µM	0.53	95%	39%	72%	96%	25%	58%	99%	11%	86%	68%	100%	97%	62%	34%	97%	41%	–
COc1ncc(-c2ccncc2)cc1N [Compound 5, 6-Methoxy-3,4′-bipyridin-5-amine]	63.9 µM	0.38	61%	0%	38%	35%	6%	26%	1%	7%	8%	12%	46%	19%	20%	9%	22%	41%	–
Nc1cc(-c2ccnc3ccccc23)c[nH]c1=O [Compound 6]	41.7 µM	0.33	22%	0%	37%	61%	13%	66%	15%	40%	24%	15%	62%	32%	22%	40%	15%	69%	–
CNc1nccc(-c2c[nH]c(=O)c(N)c2)n1 [Compound 7]	15.1 µM	0.41	94%	25%	79%	94%	80%	67%	88%	55%	89%	53%	98%	79%	52%	66%	89%	71%	–
Nc1cc(-c2ccnc(NC3CC3)n2)c[nH]c1=O [Compound 8]	12 µM	0.37	27%	12%	63%	79%	27%	43%	24%	38%	46%	45%	87%	28%	46%	51%	18%	87%	–
Cc1nc(O)c(N)cc1-c1ccncc1 [Compound 15, 3-Amino-6-methyl-5-(pyridin-4-yl)pyridin-2-one]	25.7 µM	0.42	14%	8%	33%	77%	23%	5%	24%	4%	21%	11%	49%	33%	11%	6%	10%	20%	–
O=C(Nc1cc(-c2ccncc2)c[nH]c1=O)c1ccccc1 [Compound 16, N-(2-Oxo-5-(pyridin-4-yl)-1,2-dihydropyridin-3-yl)benzamide]	41 µM	0.27	–	–	–	–	–	–	–	–	–	–	–	–	–	–	–	–	inhibition at 30 µM (MSK1): 1%; inhibition at 30 µM (p38): 4%; inhibition at 30 µM (CK1d): 79%; inhibition at 30 µM (AurB): 24%; inhibition at 30 µM (MPS1; compound at 30 µM): 62%; inhibition at 30 µM (INSR): 13%; inhibition at 30 µM (ABL): 55%; inhibition at 30 µM (PRAK): 1%; inhibition at 30 µM (LCK): 45%; inhibition at 30 µM (SRC): 60%; inhibition at 30 µM (Erk2): 5%; inhibition at 30 µM (AurA): 59%; inhibition at 30 µM (MAPKAPK2): 29%; inhibition at 30 µM (Erk1): 12%; inhibition at 30 µM (FYN): 59%; inhibition at 30 µM (AKT1): 12%
